{"source": "patent US12077555B2", "about": "“STAT degraders and uses thereof” (Kymera Therapeutics, Inc., priority 2019, dated 2024)"}
{"biological_target": "STAT3 (Homo sapiens, UniProt P40763)", "sequence (P40763 whole entry)": "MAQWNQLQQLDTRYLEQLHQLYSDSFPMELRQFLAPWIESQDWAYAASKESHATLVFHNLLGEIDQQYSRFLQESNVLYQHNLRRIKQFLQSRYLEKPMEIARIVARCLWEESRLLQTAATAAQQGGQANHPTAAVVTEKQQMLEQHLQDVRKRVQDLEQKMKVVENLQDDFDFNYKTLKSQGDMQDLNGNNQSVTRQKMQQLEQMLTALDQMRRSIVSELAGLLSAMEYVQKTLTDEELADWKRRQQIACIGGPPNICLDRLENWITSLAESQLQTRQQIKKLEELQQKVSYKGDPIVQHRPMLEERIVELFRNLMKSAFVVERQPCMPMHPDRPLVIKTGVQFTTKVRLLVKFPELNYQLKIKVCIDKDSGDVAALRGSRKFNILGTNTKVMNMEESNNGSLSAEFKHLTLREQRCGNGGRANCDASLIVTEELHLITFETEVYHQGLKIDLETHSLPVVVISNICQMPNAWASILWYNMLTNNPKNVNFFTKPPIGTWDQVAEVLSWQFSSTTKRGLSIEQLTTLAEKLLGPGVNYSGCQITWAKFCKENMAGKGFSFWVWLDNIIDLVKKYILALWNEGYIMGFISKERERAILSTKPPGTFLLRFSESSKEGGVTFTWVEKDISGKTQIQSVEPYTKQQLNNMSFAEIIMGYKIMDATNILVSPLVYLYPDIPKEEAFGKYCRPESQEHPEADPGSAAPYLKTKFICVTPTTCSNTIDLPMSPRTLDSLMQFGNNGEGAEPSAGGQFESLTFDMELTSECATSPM", "test": "STAT3 HiBiT degradation assay in transfected A549 cells", "format": "cell-based", "design": "expressed in transfected cells; host or cells: A549", "settings": "A549, 24 h; read-out: STAT3 HiBiT A549 degradation 24 h: Average external-Abs DC50", "outline": "(§1)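 Transfected A549 cells (~2000/well) plated 24 h, then treated 24 h at 37 °C, 5% CO2 with a 3-fold, 10-point compound dilution. HiBiT lytic luminescence read after 10 min at room temperature; remaining STAT3 normalized to negative and positive controls, four-parameter fit. DC50 binned A <0.01, B 0.01–0.1, C 0.1–1.0, D >1.0 µM.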", "units": {"DC50": "nM"}}
{"smiles": "Cc1ncsc1-c1ccc(CNC(=O)[C@@H]2C[C@@H](O)CN2C(=O)[C@@H](NC(=O)CCCCCCCCCOC[C@H](CCC(N)=O)NC(=O)[C@@H]2Cc3cccc4c3N2C(=O)[C@@H](NC(=O)c2cc3cc(C(=O)P(=O)(O)O)ccc3[nH]2)CC4)C(C)(C)C)cc1", "note": "[Compound I-153, 2-[[(2S,11S)-2-[[(2S)-4-carbamoyl-1-[(9-[[(2S)-1-[(2S,4R)-4-hydroxy-2-([[4-(4-methyl-1,3-thiazol-5-yl)phenyl]methyl]carbamoyl)pyrrolidin-1-yl]-3,3-dimethyl-1-oxobutan-2-yl]carbamoyl]nonyl)oxy]butan-2-yl]carbamoyl]-12-oxo-1-azatricyclo[6.4.1.0^[4,13]]trideca-4(13),5,7-trien-11-yl]carbamoyl]-1H-indole-5-carbonylphosphonic acid]", "DC50": "> 1000"}
{"smiles": "Cc1ncsc1-c1ccc(CNC(=O)[C@@H]2C[C@@H](O)CN2C(=O)[C@@H](NC(=O)CN2CCC(Cc3ccc(CO[C@H](C)[C@H](CCC(N)=O)NC(=O)[C@@H]4Cc5cccc6c5N4C(=O)[C@@H](NC(=O)c4cc5cc(C(=O)P(=O)(O)O)ccc5[nH]4)CC6)cc3)CC2)C(C)(C)C)cc1", "note": "[Compound I-178]", "DC50": "> 1000"}
{"smiles": "Cc1ncsc1-c1ccc(CNC(=O)[C@@H]2C[C@@H](O)CN2C(=O)[C@@H](NC(=O)CCCc2ccc(CNC(=O)[C@H](CCC(N)=O)NC(=O)[C@@H]3Cc4cccc5c4N3C(=O)[C@@H](NC(=O)c3cc4cc(C(=O)P(=O)(O)O)ccc4[nH]3)CC5)cc2)C(C)(C)C)cc1", "note": "[Compound I-138]", "DC50": "> 1000"}
{"smiles": "Cn1c(=O)n(C2CCC(=O)NC2=O)c2cccc(CCCC(=O)N3CC[C@H]4CC[C@@H](C(=O)N[C@@H](CCC(N)=O)C(=O)NC(c5ccccc5)c5ccccc5)N4C(=O)[C@@H](NC(=O)c4cc5cc(C(=O)P(=O)(O)O)ccc5[nH]4)C3)c21", "note": "(stereo partly drawn) [Compound I-122, 2-[[(5S,8S,10aR)-8-[[(1S)-3-carbamoyl-1-(diphenylmethylcarbamoyl)propyL]carbamoyl]-3-[4-[1-(2,6-dioxopiperidin-3-yl)-3-methyl-2-oxo-1,3-benzodiazol-4-yl]butanoyl]-6-oxo-octahydropyrrolo[1,2-a][1,5]diazocin-5-yl]carbamoyl]-1H-indole-5-carbonylphosphonic acid]", "DC50": "> 1000"}
{"smiles": "Cc1cc(CCCCCC(=O)N[C@H](C(=O)N2C[C@H](O)C[C@H]2C(=O)N[C@@H](C)c2ccc(-c3scnc3C)cc2)C(C)(C)C)cc(NC(=O)[C@H](CCC(N)=O)NC(=O)[C@@H]2Cc3cccc4c3N2C(=O)[C@@H](NC(=O)c2cc3cc(C(=O)P(=O)(O)O)ccc3[nH]2)CC4)c1", "note": "[Compound I-258, 2-[[(2S,11S)-2-[[(1S)-3-carbamoyl-1-[[3-(5-[[(2S)-1-[(2S,4R)-4-hydroxy-2-[[(1S)-1-[4-(4-methyl-1,3-thiazol-5-yl)phenyl]ethyl]carbamoyl]pyrrolidin-1-yl]-3,3-dimethyl-1-oxobutan-2-yl]carbamoyl]pentyl)-5-methylphenyl]carbamoyl]propyl]carbamoyl]-12-oxo-1-azatricyclo[6.4.1.0^[4,13]]trideca-4(13),5,7-trien-11-yl]carbamoyl]-1H-indole-5-carbonylphosphonic acid]", "DC50": "< 10"}
{"smiles": "Cc1ncsc1-c1ccc(CNC(=O)[C@@H]2C[C@@H](O)CN2C(=O)[C@@H](NC(=O)CCCCCc2cccc(O[C@H](C)[C@H](CCC(N)=O)NC(=O)[C@@H]3Cc4cccc5c4N3C(=O)[C@@H](NC(=O)c3cc4cc(C(=O)P(=O)(O)O)ccc4[nH]3)CC5)c2)C(C)(C)C)cc1", "note": "[Compound I-210, 2-[[(2S,11S)-2-[[(3S,4R)-1-carbamoyl-4-[3-(5-[[(2S)-1-[(2S,4R)-4-hydroxy-2-([[4-(4-methyl-1,3-thiazol-5-yl)phenyl]methyl]carbamoyl)pyrrolidin-1-yl]-3,3-dimethyl-1-oxobutan-2-yl]carbamoyl]pentyl)phenoxy]pentan-3-yl]carbamoyl]-12-oxo-1-azatricyclo[6.4.1.0^[4,13]]trideca-4(13),5,7-trien-11-yl]carbamoyl]-1H-indole-5-carbonylphosphonic acid]", "DC50": "> 1000"}
{"smiles": "Cc1ncsc1-c1ccc([C@H](C)NC(=O)[C@@H]2C[C@@H](O)CN2C(=O)[C@@H](NC(=O)CCCCCc2cccc(NC(=O)[C@H](CCC(N)=O)NC(=O)[C@@H]3Cc4cccc5c4N3C(=O)[C@@H](NC(=O)c3cc4cc(C(=O)P(=O)(O)O)ccc4[nH]3)CC5)c2)C(C)(C)C)cc1", "note": "[Compound I-209]", "DC50": "10 to 100"}
{"smiles": "Cc1cc(CCCC(=O)N[C@H](C(=O)N2C[C@H](O)C[C@H]2C(=O)N[C@@H](C)c2ccc(-c3scnc3C)cc2)C(C)(C)C)c(F)c(OC[C@H](CCC(N)=O)NC(=O)[C@@H]2Cc3cccc4c3N2C(=O)[C@@H](NC(=O)c2cc3cc(C(=O)P(=O)(O)O)ccc3[nH]2)CC4)c1", "note": "[Compound I-235, diammonium 2-[[(2S,11S)-2-[[(2S)-4-carbamoyl-1-[2-fluoro-3-(3-[[(2S)-1-[(2S,4R)-4-hydroxy-2-[[(1S)-1-[4-(4-methyl-1,3-thiazol-5-yl)phenyl]ethyl]carbamoyl]pyrrolidin-1-yl]-3,3-dimethyl-1-oxobutan-2-yl]carbamoyl]propyl)-5-methyl-phenoxy]butan-2-yl]carbamoyl]-12-oxo-1-azatricyclo[6.4.1.0^[4,13]]trideca-4(13),5,7-trien-11-yl]carbamoyl]-1H-indole-5-carbonylphosphonate]", "DC50": "> 1000"}
{"smiles": "Cc1ncsc1-c1ccc([C@H](C)NC(=O)[C@@H]2C[C@@H](O)CN2C(=O)[C@@H](NC(=O)CCCCc2ccc(CO[C@H](C)[C@H](CCC(N)=O)NC(=O)[C@@H]3Cc4cccc5c4N3C(=O)[C@@H](NC(=O)c3cc4cc(C(=O)P(=O)(O)O)ccc4[nH]3)CC5)c(F)c2)C(C)(C)C)cc1", "note": "[Compound I-225, diammonium 2-[[(2S,11S)-2-[[(3S,4R)-1-carbamoyl-4-[[2-fluoro-4-(4-[[(2S)-1-[(2S,4R)-4-hydroxy-2-[[(1S)-1-[4-(4-methyl-1,3-thiazol-5-yl)phenyl]ethyl]carbamoyl]pyrrolidin-1-yl]-3,3-dimethyl-1-oxobutan-2-yl]carbamoyl]butyl)phenyl]methoxy]pentan-3-yl]carbamoyl]-12-oxo-1-azatricyclo[6.4.1.0^[4,13]]trideca-4(13),5,7-trien-11-yl]carbamoyl]-1H-indole-5-carbonylphosphonate]", "DC50": "100 to 1000"}
{"smiles": "Cc1ncsc1-c1ccc([C@H](C)NC(=O)[C@@H]2C[C@@H](O)CN2C(=O)[C@@H](NC(=O)CCc2cccc(OC[C@H](CCC(N)=O)NC(=O)[C@@H]3Cc4cccc5c4N3C[C@@H](CC(=O)C3Cc4cc(C(=O)P(=O)(O)O)ccc4N3)CC5)c2)C(C)(C)C)cc1", "note": "(stereo partly drawn) [Compound I-260, diammonium 2-[[(2S,11S)-2-[[(2S)-4-carbamoyl-1-[3-(2-[[(2S)-1-[(2S,4R)-4-hydroxy-2-[[(1S)-1-[4-(4-methyl-1,3-thiazol-5-yl)phenyl]ethyl]carbamoyl]pyrrolidin-1-yl]-3,3-dimethyl-1-oxobutan-2-yl]carbamoyl]ethyl)phenoxy]butan-2-yl]carbamoyl]-12-oxo-1-azatricyclo[6.4.1.0^[4,13]]trideca-4(13),5,7-trien-11-yl]carbamoyl]-1H-indole-5-carbonylphosphonate]", "DC50": "> 1000"}
{"smiles": "Cc1ncsc1-c1ccc([C@H](C)NC(=O)[C@@H]2C[C@@H](O)CN2C(=O)[C@@H](NC(=O)CCCCCc2cc(F)cc(OC[C@H](CCC(N)=O)NC(=O)[C@@H]3Cc4cccc5c4N3C(=O)[C@@H](NC(=O)c3cc4cc(C(=O)P(=O)(O)O)ccc4[nH]3)CC5)c2F)C(C)(C)C)cc1", "note": "[Compound I-267]", "DC50": "< 10"}
{"smiles": "Cn1c(=O)n(C2CCC(=O)NC2=O)c2cccc(CCCCCCC(=O)N3CC[C@H]4CC[C@@H](C(=O)N[C@@H](CCC(N)=O)C(=O)NC(c5ccccc5)c5ccccc5)N4C(=O)[C@@H](NC(=O)c4cc5cc(C(=O)P(=O)(O)O)ccc5[nH]4)C3)c21", "note": "(stereo partly drawn) [Compound I-124, 2-[[(5S,8S,10aR)-8-[[(1S)-3-carbamoyl-1-(diphenylmethylcarbamoyl)propyl]carbamoyl]-3-[7-[1-(2,6-dioxopiperidin-3-yl)-3-methyl-2-oxo-1,3-benzodiazol-4-yl]heptanoyl]-6-oxo-octahydropyrrolo[1,2-a][1,5]diazocin-5-yl]carbamoyl]-1H-indole-5-carbonylphosphonic acid]", "DC50": "> 1000"}
{"smiles": "Cc1ncsc1-c1ccc([C@H](C)NC(=O)[C@@H]2C[C@@H](O)CN2C(=O)[C@@H](NC(=O)CCCCCc2cc(F)cc(NC(=O)[C@H](CCC(N)=O)NC(=O)[C@@H]3Cc4cccc5c4N3C(=O)[C@@H](NC(=O)c3cc4cc(C(=O)P(=O)(O)O)ccc4[nH]3)CC5)c2)C(C)(C)C)cc1", "note": "[Compound I-264, 63 2-[[(2S,11S)-2-[[(1S)-3-carbamoyl-1-[[3-fluoro-5-(5-[[(2S)-1-[(2S,4R)-4-hydroxy-2-[[(1S)-1-[4-(4-methyl-1,3-thiazol-5-yl)phenyl]ethyl]carbamoyl]pyrrolidin-1-yl]-3,3-dimethyl-1-1-oxobutan-2-yl]carbamoyl]pentyl)phenyl]carbamoyl]propyl]carbamoyl]-12-oxo-1-azatricyclo[6.4.1.0^[4,13]]trideca-4(13),5,7-trien-11-yl]carbamoyl]-1H-indole-5-carbonylphosphonic acid 7]", "DC50": "10 to 100"}
{"biological_target": "STAT3 (Homo sapiens, UniProt P40763)", "test": "STAT3 HiBiT degradation assay in transfected A549 cells", "format": "cell-based", "design": "expressed in transfected cells; host or cells: A549", "settings": "read-out: STAT3 HiBiT A549 degradation 24 h: Average external-Abs DC50; A549, 24 h", "outline": "as §1", "units": {"DC50": "nM"}}
{"smiles": "Cn1c(=O)n([C@@H]2CCC(=O)NC2=O)c2ccc(C[C@H]3CC[C@@H](CC(=O)N4CC[C@H]5CC[C@@H](C(=O)N[C@@H](CCC(N)=O)C(=O)NC(c6ccccc6)c6ccccc6)N5C(=O)[C@@H](NC(=O)c5cc6cc(C(=O)P(=O)(O)O)ccc6[nH]5)C4)CC3)cc21", "note": "[Compound I-234, (2-(((5S,8S,10aR)-8-(((S)-5-amino-1-(benzhydrylamino)-1,5-dioxopentan-2-yl)carbamoyl)-3-(2-((1S,4R)-4-((1-((R)-2,6-dioxopiperidin-3-yl)-3-methyl-2-oxo-2,3-dihydro-1H-benzo[d]imidazol-5-yl)methyl)cyclohexyl)acetyl)-6-oxodecahydropyrrolo[1,2-a][1,5]diazocin-5-yl)carbamoyl)-1H-indole-5-carbonyl)phosphonic acid]", "DC50": "10 to 100"}
